Ends that are not written are not given here.

Test [1] concerns bleomycin-induced pulmonary fibrosis. The test can be described thus: Bleomycin model of pulmonary fibrosis, therapeutic treatment. The format is in vivo, C57BL/6 mice. Conditions: for survival rate: bleomycin 2 U kg−1 intratracheal, i.v. treatment from 7 days later, Ac-GFFY-A2 10 mg/kg, 21-day period, n = 16. An excerpt: We further evaluated the anti‐fibrotic effect of Ac‐GFFY‐A2 peptide nanofibers in vivo. […] The observed reductions in fibrosis, collagen accumulation, and protein levels of Col 1 and α‐SMA strongly support the efficacy of Ac‐GFFY‐A2 in combating fibrotic processes, confirming that the peptide nanofibers as a TRB3/p62 PPIs modulator with a potent anti‐fibrotic activity.
C57BL/6 mice were intratracheally administered with bleomycin at a dose of 2 U kg^−1 body weight as previously described.^[ [11a] ^]
Hydroxyproline content of the right lung of each mouse was measured using a conventional hydroxyproline method as previously described.^[ [30] ^]
The left lungs cleared of blood were inflated with 10% neutral buffered formalin and fixed overnight. Then the tissues were embedded in paraffin and sectioned. The 5‐µm sections were stained with H&E and Masson trichrome according to the manufacturer`s instructions (Sigma–Aldrich). Immunohistochemistry was performed as previously described.^[ [30] ^] The antibodies specific for α‐SMA and Collagen I were used for staining.

Test [2] has as its system autophagic flux in activated MRC-5 cells. Description: Autophagic flux (LC3-II:LC3-I, p62 western blot; mRFP-GFP-LC3 live-cell imaging). Format: cell-based, human. Particulars: TGF-β1 10 ng/mL, peptide 50 µM, 24 h. The method, then: According to the manufacturer's instructions, MRC-5 cells were infected with mRFP-GFP-LC3 adenoviral particles. After infection, the cells were cultured for another 24 h and seeded on a CLSM dish at a density of 5 × 10^4 cells. After adherence, the cells were treated with 0 or 10 ng mL^-1 TGF-β1 for 24 h. On the other hand, in order to detect whether peptide could regulate the autophagic flux, the stable infected MRC-5 cells were seeded on a CLSM dish at a density of 5 × 10^4 cells. After adherence, the cells were treated with saline, Ac-GFFY-A2 (50 μM) or A2 (50 μM) plus TGF-β1 (10 ng mL^-1) for 24 h. The cells solely treated by saline as control group. Discarding the medium and washing the cells with cold PBS buffer. The autophagic flux was detected by Live Cell Imaging Microscopy (Leica TCS SP5). page 18: […] -3' and [NT]. […] The autophagic flux was detected by Live Cell Imaging Microscopy (Leica TCS SP5). […] The protein concentration was measured using BCA Protein Assay Kit (Thermo Scientific). […] The protein transferred PVDF membranes were incubated with following primary antibodies at 4°C overnight: Then the membranes were incubated with horseradish peroxidase (HRP)-conjugated secondary antibodies at room temperature for 1 h, and protein signals were detected using an enhanced chemiluminescence kit (Pierce). […] The co -precipitates were resolved using SDS-PAGE and detected with immunoblotting. […]
(Immunoblotting shows a protein as a band on a membrane.)

Ac-GFFYGGWLTRLLQTK-OH [Ac-GFFY-A2] came in with a survival rate in test [1] of 68.75%. The “quantification of fibrotic left lung sections (lung fibrotic score)” value in test [1] (bleomycin mice, i.v. treatment, H&E, compared to saline or A2) is reported as “significant decrease in fibrosis”. In test [1] (bleomycin mice, i.v. treatment, average body weight curve), the body weight result is on record as “partial recovery from the body weight loss”. Also, the hydroxyproline content entry in test [1] (bleomycin mice, i.v. treatment, bleomycin challenge alone ≈480) is “≈ 280 µg per right lung tissue”. The autophagic flux entry in test [2] was “restoration of autophagic flux”.
In turn, GGWLTRLLQTK-OH [A2, reference compound] displayed a survival rate in test [1] of 62.50%. The autophagic flux entry in test [2] was “barely increased”.

The values above are taken from article PMC11267363, “Supramolecular Nanofibers Ameliorate Bleomycin‐Induced Pulmonary Fibrosis by Restoring Autophagy” (Advanced Science, 2024).
